Reference: patent US7169782B2, “Aryl substituted thiazolidinones and the use thereof” (Euro-Celtique S.A., priority 2001, dated 2007)

What follows are compounds tested against rBIIa/beta 1 sodium channels expressed in Xenopus oocytes (Rattus norvegicus, UniProt P04775) (assay: Electrophysiological assay, two-electrode voltage clamp in oocytes, inactivated-state protocol). Conditions: not given.
Type: cell-based
Method: An electrophysiological assay was used to measure potencies of compounds of the present invention rBIIa/beta 1 sodium channels expressed in Xenopus oocytes.
Preparation of cRNA encoding cloned rat brain type IIa (rBIIa) and beta 1 (β1): cDNA clones encoding the rat brain beta 1 subunit are cloned in house using standard methods, and mRNA are prepared by standard methods. mRNA encoding rBIIa is provided by Dr. A. Golden (UC Irvine). The mRNAs are diluted and stored at −80° C. in 1 μL aliquots until injection.
Preparation of oocytes: Mature female Xenopus laevis are anaesthetized (20–40 min) using 0.15% 3-aminobenzoic acid ethyl ester (MS-222) following established procedures (Woodward, R. M., et al., Mol. Pharmacol. 41:89–103 (1992)).
Two to six ovarian lobes are surgically removed. Oocytes at developmental stages V–VI are dissected from the ovary, wherein the oocytes are still surrounded by enveloping ovarian tissues. Oocytes are defolliculated on the day of surgery by treatment with collagenase (0.5 mg/mL Sigma Type I, or Boehringer Mannheim Type A, for 0.5–1 hr). Treated oocytes are vortexed to dislodge epithelia, washed repeatedly and stored in Barth's medium containing 88 mM NaCl, 1 mM KCl, 0.41 mM CaCl2, 0.33 mM Ca(NO3)2, 0.82 mM MgSO4, 2.4 mM NaHCO3, 5 mM HEPES, pH 7.4 adjusted with 0.1 mg/mL gentamycin sulphate.
Micro-injection of oocytes: Defolliculated oocytes are micro-injected using a Nanoject injection system (Drummond Scientific Co., Broomall, Pa.). Injection pipettes are beveled to minimize clogging. Tip diameter of injection pipettes is 15–35 μm. Oocytes are microinjected with approximately 50 nL 1:10 ratio mixtures of cRNAs for rBIIa and beta 1 respectively.
Electrophysiology: Membrane current responses are recorded in frog Ringer solution containing 115 mM NaCl, 2 mM KCl, 1.8 mM CaCl2, 5 mM HEPES, pH 7.4. Electrical recordings are made using a conventional two-electrode voltage clamp (Dagan TEV-200) over periods ranging between 1–7 days following injection. The recording chamber is a simple gravity fed flow-through chamber (volume […] depending on adjustment of aspirator). Oocytes are placed in the recording chamber, impaled with electrodes and continuously perfused (5–15 mL min^−1) with frog Ringer's solution. The tested compounds are applied by bath perfusion.
Voltage protocols for evoking sodium channel currents: The standard holding potential for whole oocyte clamp is −120 mV. Standard current-voltage relationships are elicited by 40 ms depolarizing steps starting from −60 mV to +50 mV in 10 mV increments. Peak currents are measured as the maximum negative current after depolarizing voltage steps. The voltage from maximum current response is noted and used for the next voltage protocol.
The purpose is to find compounds that are state dependent modifiers of neuronal sodium channels. Preferably, the compounds have a low affinity for the rested/closed state of the channel, but a high affinity for the inactivated state. The following voltage protocol is used to measure a compounds affinity for the inactivated state. Oocytes are held at a holding potential of −120 mV. At this membrane voltage, nearly all of the channels are in the closed state. Then a 4 second depolarization is made to the voltage where the maximum current is elicited. At the end of this depolarization, nearly all the channels are in the inactivated state. A 10 ms hyperpolarizing step is then made in order to remove some channels from the inactivated state. A final depolarizing test pulse is used to assay the sodium current after this prolonged depolarization (see analysis below). Sodium currents are measured at this test pulse before and after the application of the tested compound. Data is acquired using PCLAMP 8.0 software and analyzed with […] software (Axon instruments). […]

Sequence of rBIIa/beta 1 sodium channels expressed in Xenopus oocytes (P04775 whole entry): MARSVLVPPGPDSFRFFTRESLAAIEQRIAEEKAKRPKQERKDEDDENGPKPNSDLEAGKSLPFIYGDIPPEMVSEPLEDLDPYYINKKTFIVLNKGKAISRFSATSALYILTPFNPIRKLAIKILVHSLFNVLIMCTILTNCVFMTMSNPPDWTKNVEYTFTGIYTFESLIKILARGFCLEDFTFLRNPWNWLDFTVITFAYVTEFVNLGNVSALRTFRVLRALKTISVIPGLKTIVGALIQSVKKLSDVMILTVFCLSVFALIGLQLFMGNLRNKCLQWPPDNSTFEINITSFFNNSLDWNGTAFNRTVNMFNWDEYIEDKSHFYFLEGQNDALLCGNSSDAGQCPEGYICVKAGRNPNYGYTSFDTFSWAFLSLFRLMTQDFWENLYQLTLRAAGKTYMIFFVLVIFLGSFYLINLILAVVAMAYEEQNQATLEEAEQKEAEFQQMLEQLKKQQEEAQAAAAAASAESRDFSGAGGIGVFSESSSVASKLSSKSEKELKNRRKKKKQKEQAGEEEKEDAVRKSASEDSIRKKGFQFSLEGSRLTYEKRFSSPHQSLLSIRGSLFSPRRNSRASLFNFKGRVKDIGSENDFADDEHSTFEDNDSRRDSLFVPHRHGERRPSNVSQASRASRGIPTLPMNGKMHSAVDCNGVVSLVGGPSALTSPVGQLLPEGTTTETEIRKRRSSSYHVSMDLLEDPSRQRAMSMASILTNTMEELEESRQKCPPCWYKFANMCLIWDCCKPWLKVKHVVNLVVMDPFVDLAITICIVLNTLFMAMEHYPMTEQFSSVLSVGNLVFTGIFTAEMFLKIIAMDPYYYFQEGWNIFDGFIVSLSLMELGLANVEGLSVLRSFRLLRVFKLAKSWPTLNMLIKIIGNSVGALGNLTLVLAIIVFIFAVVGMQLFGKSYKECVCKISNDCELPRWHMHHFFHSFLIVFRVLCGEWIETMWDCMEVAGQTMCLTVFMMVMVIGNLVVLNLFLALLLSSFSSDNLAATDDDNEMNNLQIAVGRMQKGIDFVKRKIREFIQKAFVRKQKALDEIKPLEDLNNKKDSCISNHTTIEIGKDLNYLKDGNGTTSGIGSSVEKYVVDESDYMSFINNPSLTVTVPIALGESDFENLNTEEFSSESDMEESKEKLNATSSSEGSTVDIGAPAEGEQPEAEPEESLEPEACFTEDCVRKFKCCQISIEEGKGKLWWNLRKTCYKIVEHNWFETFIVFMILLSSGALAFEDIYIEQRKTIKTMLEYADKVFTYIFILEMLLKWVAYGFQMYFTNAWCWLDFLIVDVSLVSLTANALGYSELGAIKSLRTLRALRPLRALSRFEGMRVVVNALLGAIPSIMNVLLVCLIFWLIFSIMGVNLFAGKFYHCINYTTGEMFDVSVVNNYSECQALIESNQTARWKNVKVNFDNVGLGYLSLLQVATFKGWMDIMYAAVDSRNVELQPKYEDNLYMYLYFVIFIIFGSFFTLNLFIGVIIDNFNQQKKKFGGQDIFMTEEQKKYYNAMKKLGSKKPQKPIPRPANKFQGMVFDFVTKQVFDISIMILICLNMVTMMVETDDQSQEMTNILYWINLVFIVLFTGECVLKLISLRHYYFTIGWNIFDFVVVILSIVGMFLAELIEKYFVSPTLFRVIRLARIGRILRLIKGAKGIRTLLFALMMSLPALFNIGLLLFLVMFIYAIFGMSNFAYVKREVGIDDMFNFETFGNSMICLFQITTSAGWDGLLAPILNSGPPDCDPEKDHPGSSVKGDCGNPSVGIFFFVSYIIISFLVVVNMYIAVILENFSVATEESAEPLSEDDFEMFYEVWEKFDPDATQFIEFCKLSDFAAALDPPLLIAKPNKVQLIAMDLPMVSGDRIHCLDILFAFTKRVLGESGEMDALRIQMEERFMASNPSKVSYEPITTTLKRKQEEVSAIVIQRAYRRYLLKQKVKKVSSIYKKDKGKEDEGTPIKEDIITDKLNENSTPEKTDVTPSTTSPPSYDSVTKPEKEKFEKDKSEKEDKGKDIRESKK
Sequence of rBIIa/beta 1 sodium channels expressed in Xenopus oocytes (Q00954 19-218 partner): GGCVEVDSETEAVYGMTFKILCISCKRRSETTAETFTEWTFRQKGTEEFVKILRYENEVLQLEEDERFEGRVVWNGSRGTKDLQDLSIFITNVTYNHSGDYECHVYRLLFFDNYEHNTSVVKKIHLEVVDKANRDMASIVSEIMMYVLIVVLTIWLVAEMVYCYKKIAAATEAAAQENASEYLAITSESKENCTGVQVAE

| SMILES | Ki [nM] |
| --- | --- |
| O=C1CSC(C=Cc2ccccc2)N1CCN1CCCCC1 (centres unmarked) | 8790 |

Same assay, conditions: apparent inhibition constant from single point inhibition data; rat brain type IIa/beta 1 Na+ channels in Xenopus oocytes; inactivated state; read-out: Ki (oocyte)

| SMILES | Ki [nM] |
| --- | --- |
| O=C1CSC(c2cccc(Oc3ccccc3)c2)N1CCN1CCCCC1 (centres unmarked) | 430 |
| O=C1CSC(C=C(c2ccccc2)c2ccccc2)N1CCN1CCCCC1 (centres unmarked) | 290 |
| CC(C)(C)c1ccc(Oc2cccc(C3SCC(=O)N3CCN3CCCCC3)c2)cc1 (centres unmarked) | 180 |
| O=C1CSC(c2ccc(-c3ccc(Cl)cc3)o2)N1CCN1CCCCC1 (centres unmarked) | 600 |
| O=C1CSC(c2cccc(Oc3ccc(Cl)c(Cl)c3)c2)N1CCN1CCCCC1 (centres unmarked) | 180 |
| O=C1CSC(c2cccc(OCc3ccccc3)c2)N1CCN1CCCCC1 (centres unmarked) | 390 |
| O=C1CSC(c2cccc(Oc3ccc(Cl)cc3)c2)N1CCN1CCCCC1 (centres unmarked) | 390 |
| O=C1CSC(c2ccc(Oc3ccc(F)cc3)cc2)N1CCN1CCCCC1 (centres unmarked) | 500 |
| COc1ccc(Oc2cccc(C3SCC(=O)N3CCN3CCCCC3)c2)cc1 (centres unmarked) | 800 |
| O=C1CSC(C#Cc2ccccc2)N1CCN1CCCCC1 (centres unmarked) | 5350 |
| O=C1CSC(c2cccc3ccccc23)N1CCN1CCCCC1 (centres unmarked) | 2830 |
| CC1SCC(=O)N1CCN1CCCCC1 (centres unmarked) | 70700 |
| O=C1CSC(C=C(c2ccccc2)c2ccccc2)N1CCN1CCCC1 (centres unmarked) | 3480 |
| CN(C)CCN1C(=O)CSC1C=C(c1ccccc1)c1ccccc1 (centres unmarked) | 2600 |
| CN(C)CCN1C(=O)CSC1c1cccc(Oc2ccc(C(C)(C)C)cc2)c1 (centres unmarked) | 840 |
| O=C1CSC(c2cccc(Oc3ccccc3)c2)N1C1CCN(Cc2ccccc2)CC1 (centres unmarked) | 250 |
| O=C1CSC(c2cccc(OCc3ccccc3)c2)N1CCCn1ccnc1 (centres unmarked) | 6550 |

| SMILES | Ki [nM] |
| --- | --- |
| O=C1CSC(c2cccc(Oc3cccc(C(F)(F)F)c3)c2)N1Cc1ccccn1 (centres unmarked) | 3400 |
| CN(C)CCN1C(=O)CSC1c1cccc(Oc2cc(Cl)cc(Cl)c2)c1 (centres unmarked) | 840 |
| CN(C)CCCN1C(=O)CSC1c1cccc(Oc2cc(Cl)cc(Cl)c2)c1 (centres unmarked) | 1880 |
| O=C1CSC(c2ccc(Oc3ccc(F)cc3)cc2)N1C1CCN(Cc2ccccc2)CC1 (centres unmarked) | 280 |
| O=C1CSC(c2cccc(Oc3cccc(C(F)(F)F)c3)c2)N1CCN1CCCC1 (centres unmarked) | 420 |
| CCn1c2ccccc2c2cc(C3SCC(=O)N3CCN3CCCC3)ccc21 (centres unmarked) | 7400 |
| O=C1CSC(c2cccc(OCc3ccccc3)c2)N1CCN1CCCC1 (centres unmarked) | 3430 |
| O=C1CSC(c2cccc(Oc3ccc(Cl)c(Cl)c3)c2)N1CCN1CCOCC1 (centres unmarked) | 810 |
| O=C1CSC(c2cccc(Oc3ccc(Cl)c(Cl)c3)c2)N1CCN1CCCC1 (centres unmarked) | 720 |
| O=C1CSC(c2cccc(Oc3cccc(C(F)(F)F)c3)c2)N1CCCn1ccnc1 (centres unmarked) | 1150 |
| CN(C)CCCN1C(=O)CSC1c1cccc(Oc2cccc(C(F)(F)F)c2)c1 (centres unmarked) | 2750 |
| O=C1CSC(c2cccc(Oc3cccc(C(F)(F)F)c3)c2)N1CCNCc1ccccc1 (centres unmarked) | 50 |
| CC(C)N(CCN1C(=O)CSC1c1cccc(Oc2cccc(C(F)(F)F)c2)c1)C(C)C (centres unmarked) | 30 |
| CN(C)CC(C)(C)CN1C(=O)CSC1c1cccc(Oc2ccc(Cl)c(Cl)c2)c1 (centres unmarked) | 390 |
| CC1CCCCN1CCCN1C(=O)CSC1c1cccc(Oc2ccc(Cl)c(Cl)c2)c1 (centres unmarked) | 880 |
| CN(C)CC(C)(C)CN1C(=O)CSC1c1cccc(Oc2cccc(C(F)(F)F)c2)c1 (centres unmarked) | 230 |
| CC1CCCCN1CCCN1C(=O)CSC1c1cccc(Oc2cccc(C(F)(F)F)c2)c1 (centres unmarked) | 1320 |
